PubChem BioAssay AID449762 (Southern Research Specialized Biocontainment Screening …, 2010)
Results filed as inconclusive are left out.

Test system: M. tuberculosis H37Rv growth inhibition, 7H9 media
Experiment: M. tuberculosis growth inhibition, HTS (AID 449762);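 further: bacterial growth assessed after seven days of incubation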
Settings: not given

Row | SMILES | IC50
1 | OC(CNCCc1ccc(C(F)(F)F)cc1)COC(c1ccccc1)c1ccccc1 (configuration not stated) | 16.7 µM
2 | Cc1nonc1NC(=O)CSc1ccc(-c2ccccc2)nn1 | 21.1 µM
3 | CC(=O)c1sc(NC(=O)c2cc(=O)c3ccccc3o2)nc1C | 14.3 µM
4 | CCOC(=O)Cn1nc(-c2ccccc2)nc1-c1ccccc1 | 5.84 µM
5 | O=C(C[n+]1cc(-c2ccc(Cl)cc2)n2c1CCC2)Nc1nc(-c2ccccc2)cs1 | 17 µM
6 | CCCCC(=O)OCC(=O)N1N=C(c2c[nH]c3ccccc23)C(O)C1c1ccc(OC)cc1 (configuration not stated) | 10.6 µM
7 | O=C(CSc1ccc(Cl)cc1)N1CCC(c2nc3ccccc3s2)CC1 | 85.9 µM
8 | Clc1ccc(NNc2ccnc3cc(Cl)ccc23)cc1 | 16.8 µM
9 | O=C(c1cc2ccccc2o1)N1CCN(S(=O)(=O)c2ccc(Cl)s2)CC1 | 4.01 µM
10 | CCOC(=O)c1sc(NC(=O)CN2C(=O)NC3(CC(C)CC(C)(C)C3)C2=O)cc1C (configuration not stated) | 21.4 µM
11 | C=CCN(C(=O)CSc1nc2c(sc3ccccc32)c(=O)n1CCN(CC)CC)c1ccccc1 | 29 µM
12 | C/C(=N\NC(=O)c1cc2ccccc2cc1O)c1ccc(C)o1 | 10.1 µM
13 | CCCC(/C=C/c1ccc(OC(C)=O)cc1)=C1/c2ccccc2C(=O)N1c1ccccc1 | 8.07 µM
14 | O=C1CCCC2=C1C1c3ccccc3C(=O)N1c1ccc(C(=O)c3ccccc3)cc1N2 (configuration not stated) | 16 µM
15 | CC1CCCC(C)N1/N=C/c1c[nH]c2ccc(Br)cc12 (configuration not stated) | 23.3 µM
16 | CCc1ccc(N=Nc2ccc(O)c3[nH]cnc23)cc1 | 15.4 µM

Row | SMILES | IC50
17 | CC(=O)c1cccc(NC(=S)NC2CCCCCCC2)c1 | 23.6 µM
18 | COC(=O)N/N=C/c1c[n+]([O-])c2ccccc2[n+]1[O-] | 13.2 µM
19 | CCCn1nc(C(=O)NNC(=O)c2ccc(C)c(C)c2)c2ccccc2c1=O | 11.2 µM
20 | COC(=O)CN1C(c2ccc(Cl)cc2)=Nc2ccc(Cl)cc2C1c1ccccc1 (configuration not stated) | 11.8 µM
21 | CCOC(=O)CNC(=O)CNC(=O)c1nn(-c2ccc(OC)c(Cl)c2)c(=O)c2ccccc12 | 22.2 µM
22 | Brc1cccc2sc(N3CCN(c4ccccc4)CC3)nc12 | 44.5 µM
23 | NC1=NC[C@H](Cc2ccc(O)cc2)N1CCc1cccc2ccccc12 | 21.6 µM
24 | O=C(c1cnn2c(C(F)F)cc(-c3ccccc3)nc12)N1CCc2ccccc2C1 | 40.4 µM
25 | O=C(CN1CCCCC1)Nc1nnc(-c2ccc([N+](=O)[O-])cc2)s1 | 16.2 µM
26 | CCOc1ccc(NC(=S)Nc2ccc(C)c([N+](=O)[O-])c2)cc1 | 45 µM
27 | CNC(=S)/N=C/NOCc1c(Cl)cccc1Cl | 5.44 µM
28 | C[n+]1c(-c2ccccc2)c2cc(N)ccc2c2ccc(N)cc21 | 7.95 µM
29 | COC(=O)Cn1nc(-c2ccccc2)c2cc(Cl)ccc21 | 8.72 µM
30 | CO/N=C(\Cn1ncc(N2CCCC2)c(Cl)c1=O)c1ccc(Cl)cc1 | 16.9 µM
31 | O=C(CN1CCN(C(=O)COc2cccc(F)c2)CC1)Nc1ccc(Cl)c(C(F)(F)F)c1 | 49 µM
32 | COc1ccc(Nc2nc(N3CCCCC3)nc3ccccc23)c(OC)c1 | 19.1 µM

Same assay, conditions: measured here: IC90 growth inhibition

Row | SMILES | IC90
33 | OC(CNCCc1ccc(C(F)(F)F)cc1)COC(c1ccccc1)c1ccccc1 (configuration not stated) | 21.2 µM
34 | Cc1nonc1NC(=O)CSc1ccc(-c2ccccc2)nn1 | 52.9 µM
35 | CC(=O)c1sc(NC(=O)c2cc(=O)c3ccccc3o2)nc1C | > 100 µM
36 | CCOC(=O)Cn1nc(-c2ccccc2)nc1-c1ccccc1 | 22.7 µM
37 | O=C(C[n+]1cc(-c2ccc(Cl)cc2)n2c1CCC2)Nc1nc(-c2ccccc2)cs1 | 25.1 µM
38 | CCCCC(=O)OCC(=O)N1N=C(c2c[nH]c3ccccc23)C(O)C1c1ccc(OC)cc1 (configuration not stated) | 15.9 µM
39 | CN1CCN(c2ccc(C(=O)c3cn(-c4ccc(F)c(Cl)c4)nn3)cc2)CC1 | > 100 µM
40 | O=C(CSc1ccc(Cl)cc1)N1CCC(c2nc3ccccc3s2)CC1 | 92.9 µM
41 | Clc1ccc(NNc2ccnc3cc(Cl)ccc23)cc1 | 21.5 µM
42 | O=C(c1cc2ccccc2o1)N1CCN(S(=O)(=O)c2ccc(Cl)s2)CC1 | 13.1 µM
43 | CCOC(=O)c1sc(NC(=O)CN2C(=O)NC3(CC(C)CC(C)(C)C3)C2=O)cc1C (configuration not stated) | 40.3 µM
44 | C=CCN(C(=O)CSc1nc2c(sc3ccccc32)c(=O)n1CCN(CC)CC)c1ccccc1 | 36 µM
45 | C/C(=N\NC(=O)c1cc2ccccc2cc1O)c1ccc(C)o1 | 36.3 µM
46 | CCCC(/C=C/c1ccc(OC(C)=O)cc1)=C1/c2ccccc2C(=O)N1c1ccccc1 | 16.1 µM
47 | O=C1CCCC2=C1C1c3ccccc3C(=O)N1c1ccc(C(=O)c3ccccc3)cc1N2 (configuration not stated) | 21.9 µM
48 | CC1CCCC(C)N1/N=C/c1c[nH]c2ccc(Br)cc12 (configuration not stated) | 26.3 µM
49 | Cc1nn(-c2ccccc2)c(N2CCCC2)c1/C=N/Nc1ccc(S(N)(=O)=O)cc1[N+](=O)[O-] | > 100 µM
50 | CCc1ccc(N=Nc2ccc(O)c3[nH]cnc23)cc1 | > 100 µM

Row | SMILES | IC90
51 | CC(=O)c1cccc(NC(=S)NC2CCCCCCC2)c1 | 26.2 µM
52 | COC(=O)N/N=C/c1c[n+]([O-])c2ccccc2[n+]1[O-] | 31.7 µM
53 | CCCn1nc(C(=O)NNC(=O)c2ccc(C)c(C)c2)c2ccccc2c1=O | 15.9 µM
54 | COC(=O)CN1C(c2ccc(Cl)cc2)=Nc2ccc(Cl)cc2C1c1ccccc1 (configuration not stated) | 13.7 µM
55 | CCOC(=O)CNC(=O)CNC(=O)c1nn(-c2ccc(OC)c(Cl)c2)c(=O)c2ccccc12 | > 100 µM
56 | Brc1cccc2sc(N3CCN(c4ccccc4)CC3)nc12 | > 100 µM
57 | NC1=NC[C@H](Cc2ccc(O)cc2)N1CCc1cccc2ccccc12 | 24.1 µM
58 | O=C(c1cnn2c(C(F)F)cc(-c3ccccc3)nc12)N1CCc2ccccc2C1 | 49 µM
59 | CCCc1ncc(CN2CCCC(C(=O)Nc3ccc(-c4cccc(OC)c4)cc3)C2)cn1 (configuration not stated) | > 100 µM
60 | O=C(CN1CCCCC1)Nc1nnc(-c2ccc([N+](=O)[O-])cc2)s1 | 62.4 µM
61 | CCOc1ccc(NC(=S)Nc2ccc(C)c([N+](=O)[O-])c2)cc1 | > 100 µM
62 | CNC(=S)/N=C/NOCc1c(Cl)cccc1Cl | 12.9 µM
63 | C[n+]1c(-c2ccccc2)c2cc(N)ccc2c2ccc(N)cc21 | 10.2 µM
64 | COC(=O)Cn1nc(-c2ccccc2)c2cc(Cl)ccc21 | 51.7 µM
65 | CO/N=C(\Cn1ncc(N2CCCC2)c(Cl)c1=O)c1ccc(Cl)cc1 | 27.5 µM
66 | O=C(CN1CCN(C(=O)COc2cccc(F)c2)CC1)Nc1ccc(Cl)c(C(F)(F)F)c1 | 55.4 µM
67 | COc1ccc(Nc2nc(N3CCCCC3)nc3ccccc23)c(OC)c1 | 26.5 µM
